Laboratory results reported in US9663561B2, “Methods of treatment of cancer using SRC-modulating peptides” (The University of Toledo, priority 2006, dated 2017).

How the values were obtained:
[1] = molecular target: T1, purified pig kidney Na+/K+-ATPase (Sus scrofa, UniProt P05024); assay: ATPase activity of purified pig kidney Na+/K+-ATPase; type: biochemical; settings: 10 μM ouabain
T1 construct: Na+/K+-ATPase was purified from pig kidney outer medulla using the Jorgensen method; from tissue; host or cells: pig kidney outer medulla
Text: Src, without the first 85 amino acid residues, was purified from sf-9 cells as described (Ma et al., 2000) and used in the initial binding assays to ensure that Src binds to the Na+/K+-ATPase, but not the lipid composition in the purified Na+/K+-ATPase preparation. In subsequent experiments (e.g., phosphorylation and activity assays), purified recombinant full-length Src from Upstate Biotechnology was used. Na+/K+-ATPase was purified from pig kidney outer medulla using the Jorgensen method (Xie et al., 1996) and the preparations with specific activities between 1200 and 1400 μmol Pi/mg/h were used.
GST fusion proteins or His-tagged proteins were expressed in Escherichia coli BL21 and purified on glutathione beads or nickel column.

[2] = molecular target: T2, Na+/K+-ATPase/Src complex (Sus scrofa, UniProt P05024); assay: Src kinase activity (commercial kit) of Na+/K+-ATPase-bound Src; type: biochemical; settings: 10 μM ouabain
T2 construct: Na+/K+-ATPase was purified from pig kidney outer medulla using the Jorgensen method; tissue Upstate Biotechnology (Src only); host or cells: pig kidney outer medulla (Na+/K+-ATPase)
Experimental: The Src kinase activity was assayed using a commercial kit (Haas et al., 2000). To determine how Na+/K+-ATPase affects Src kinase activity, the purified Src (4.5 U) was incubated with 5 μg of the purified Na+/K+-ATPase in the Src assay buffer for 30 min at room temperature. Afterward, both control Src or the Na+/K+-ATPase-bound Src were exposed to 10 μM ouabain and Src kinase activity was determined. In other experiments, the Src pY418 was measured by anti-pY418 antibody to indicate Src activation (Ma et al., 2000). To do so, the purified Src (4.5 U) was incubated with different amounts of the purified Na+/K+-ATPase or GST-Na+/K+ATPase constructs in phosphate-buffered saline (PBS) for 30 min at 37° C. Afterward, 2 mM ATP/Mg2+ was added. The reaction continued for 5 min at 37° C. and was stopped by addition of SDS sample buffer.

[3] = molecular target: T3, GFP-canine α1 and Src-Rluc in 293T cells (Canis lupus familiaris, UniProt P50997); assay: BRET analysis; type: cell-based, human
T3 construct: expressed in transfected cells; host or cells: 293T (human embryo kidney)
Experimental: BRET assay was done as described by Lowry et al. (2002). Briefly, 24 h after transfection with GFP-Na+/K+-ATPase and Src-Rluc or other constructs as indicated, cells were seeded in triplicate in a 96-well microplate. After treatment with indicated concentration of ouabain, cells were exposed to equal volume of BRET analysis buffer containing 10 μM DeepBlue C, the substrate of Rluc. The emission at 410 nm (for Rluc) and 515 nm (for GFP) was immediately acquired using a Fluoroskan Ascent FL (Labsystems, Franklin, Mass.) with microplate luminometric detection. The BRET ratio was calculated as follows: (Emission at 515 nm−Background at 515 nm)/(Emission at 410 nm−Background at 410 nm), where Background signal was assessed in each experiment by measuring the signal of a sample of nontransfected cells.

[4] = system: LLC-PK1 cells; assay: Tyrosine phosphorylation of Na+/K+-ATPase-associated proteins (anti-α1 immunoprecipitation); type: cell-based, pig; settings: 1 μM ouabain, 5 min
Experimental: FIG. 9A. LLC-PK1 cells were treated with 1 μM ouabain for 5 min, and cell lysates were immunoprecipitated with anti-α1 antibody and analyzed for tyrosine phosphorylated proteins.
(§1) Cells were lysed in RIPA buffer containing 1% Nonidet P40, 0.25% sodium deoxycholate, 150 mM NaCl, 1 mM EDTA, 1 mM phenylmethylsulfonyl fluoride, 1 mM sodium orthovanadate, 1 mM NaF, 10 μg/ml aprotinin, 10 μg/mlleupeptin, and 50 mM Tris-HCl (pH 7.4). Cell lysates were cleared by centrifugation at 16,000×g for […], and the supernatants (1 mg) were either immunoprecipitated with anti-α1 antibody or incubated with different GST-fusion proteins. The complexes were then pulled down by either protein G agarose or glutathione beads (Ma et al., 2000; Haas et al., 2002) and analyzed by Western blot.

[5] = system: SYF and SYF+Src cells; assay: Protein tyrosine phosphorylation in SYF and SYF+Src cells; type: cell-based, mouse; settings: 100 μM ouabain 5 min
Experimental: FIG. 9B. Both SYF and SYF+Src cells were treated with 100 μM ouabain for 5 min and analyzed as in A. Representative Western blots of three experiments are shown in both A and B.
as §1

[6] = system: Na+/K+-ATPase; assay: Na+/K+-ATPase activity assay in cell lysates; type: biochemical, pig; settings: 10 μM ouabain, PY-17 and P-11 cells
Experimental: Na+/K+-ATPase enzymatic activity was determined Briefly, cells were collected from the cultures in Tris-EGTA buffer (pH 7.2) and briefly sonicated. The cell lysates were then treated with alamethicin at a concentration of 0.1 mg/mg of protein for 30 min at room temperature. ATPase activity was measured by the determination of the initial release of 32P from [,y-32P]ATP, and the reaction was carried out in a reaction mixture (1 ml) containing 100 mM NaCl, 25 mM KCl, 3 mM MgCl2, 1 mM EGTA, 2 mM ATP, 5 mM NaN3, and 50 mM Tris-HCl (pH 7.4). Na+/K+-ATPase activity was calculated as the difference between the activities measured in the absence of ouabain and in the presence of 1 mM ouabain. To determine the ouabain concentration curve, the alamethicin-treated cell lysates were preincubated with different concentrations of ouabain for 15 min before ATP was added to start the reaction.

[7] = system: Src and ERK1/2; assay: Activation of Src and ERK1/2 in P-11, A4-11, PY-17 and AAC-19 cells (Western blot); type: cell-based, pig; settings: for Src activation (Tyr(P)418-Src): 100 nM ouabain
Experimental: FIGS. 18A and 18B. Cells were exposed to 100 nM ouabain for either 5 or 15 min, and the cell lysates (50 μg/lane) were analyzed by Western blot for active Src or active ERK1/2. Blots were probed first with anti-Tyr(P)^418-Src or anti-pERK antibody, then stripped, and reprobed for total Src or ERK1/2 to ensure equal loading.
FIGS. 18 C and 18D. Cells were treated with indicated concentrations of ouabain for 5 min, and total cell lysates were analyzed for Tyr(P)^418-Src and total Src or pERK1/2 and total ERK1/2 as in FIGS. 18A and 18B. A representative Western blot and combined quantitative data are shown. The quantitative data (relative ratio of pSrc/Src or pERK/ERK) from three independent experiments (mean±S.E.) were calculated relative to the control condition of P-11 cells. *, p<0.05 versus the respective control condition of each cell line. con, control.
Cells were washed with PBS, solubilized in modified ice-cold radioimmune precipitation assay buffer, and subjected to immunoprecipitation or Western blot analysis. Protein signal was detected using the enhanced chemiluminescence kit and quantified using a Bio-Rad GS-670 imaging densitometer.

SMILES: C[C@@H]1O[C@@H](O[C@H]2C[C@@H](O)[C@]3(CO)[C@H]4[C@H](O)C[C@]5(C)[C@@H](C6=CC(=O)OC6)CC[C@]5(O)[C@@H]4CC[C@]3(O)C2)[C@H](O)[C@H](O)[C@H]1O [ouabain]
- inhibition of the ATPase activity [1]: complete inhibition
- Src kinase activity of Na+/K+-ATPase-bound Src [2]: restored the kinase activity
- ouabain concentration at which significant decrease in BRET ratio was detected [3]: 10 nM
- BRET ratio ([3]; different concentrations of ouabain): dose-dependent decrease in the BRET ratio
- tyrosine phosphorylation of Na+/K+-ATPase-associated proteins [4]: stimulated tyrosine phosphorylation
- effects of ouabain on protein tyrosine phosphorylation ([5]; SYF cells): completely abolished
- effects of ouabain on protein tyrosine phosphorylation ([5]; SYF+Src cells): restored
- inhibition of the Na+/K+-ATPase in cell lysates [6]: complete inhibition
- Src activation (Tyr(P)418-Src) ([7]; A4-11 cells): significant reduction
- dose-response of Src and ERK1/2 activation ([7]; AAC-19 cells (rat α1 knock-in)): shifted the dose-response curve to the right
- Src activation (Tyr(P)418-Src) ([7]; P-11 cells): activated Src
- Src activation (Tyr(P)418-Src) ([7]; PY-17 cells): essentially abolished
- ERK1/2 phosphorylation ([7]; PY-17 cells, ouabain): failed to detect any ouabain-induced change
